Results from PubChem BioAssay AID557 (SRMLSC, 2006).
Active and inactive are the calls of the source.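 The calls were made as follows: active = clearly stronger inhibition of the target kinase than of the helper enzymes tested alone in a counter assay; inactive = the rest.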

Biological target: not listed separately
Experiment: S. pneumoniae MK inhibitor potency, dose response, biochemical, PK/LDH-coupled NADH absorbance, hexokinase coupling counter-screen (AID 557)
Settings: purified MK, PK/LDH coupled NADH absorbance 340 nm; measured here: coupling enzymes counter-screen (hexokinase)
Work on `CN(Cc1c(O)ccc2c1oc(=O)c1ccccc12)C1CCCCC1` yielded an IC50 of 8.83 µM.
In the case of `CCn1nc(-c2cccs2)nc2c(=O)n(C)c(=O)nc1-2`, the IC50 is reported as 9.46 µM.
In the case of `O=c1c2ccccc2nc2n1CCC2`, the IC50 is reported as over 1360 µM.

Biological target: mevalonate kinase (Streptococcus pneumoniae D39)
Experiment: as above
Settings: purified MK, PK/LDH coupled NADH absorbance 340 nm
With `CCOC(=O)c1cc2sc(C)cc2n1CC(=O)N1CCN(C(=O)c2ccco2)CC1` the outcome was “inactive”.
In the case of `CCN(CC)S(=O)(=O)c1ccc(NC2c3ncccc3C(=O)N2Cc2ccccc2)cc1` (centres undefined), the IC50 is reported as 21.9 µM.
For `O=C1CN(C(=O)COC(=O)C2=COCCO2)c2ccccc2N1`, the outcome was “inactive”.
For `O=c1oc2ccccc2c(O)c1CN1CCCCC1`, the outcome was “inactive”.
For `CCOc1cc(C(=O)NCCN2CCOCC2)cc(OCC)c1OCC`, the outcome was “inactive”.
For `COc1ccc2nc(NC(=O)C3CCCN(S(=O)(=O)c4cccc5nonc45)C3)sc2c1` (centres undefined), the outcome was “inactive”.
For `Cc1cc(N2CCN(C(=O)c3ccco3)CC2)n2ncnc2n1`, the outcome was “inactive”.
In the case of `Cc1occc1C(=O)Nc1nnc(C(F)(F)F)s1`, the outcome is reported as “inactive”.
For `O=C(COC(=O)Cc1ccc(S(=O)(=O)N2CCOCC2)s1)NCc1ccccc1`, the outcome was “inactive”.
In the case of `CN(CCC(=O)Nc1ccc2c(c1)OCO2)Cc1ccccc1`, the outcome is reported as “inactive”.
With `COc1cccc(N2CCN(C3CC(=O)N(c4ccc(C)c(Cl)c4)C3=O)CC2)c1` (centres undefined) the outcome was “inactive”.
With `c1ccn2c(SCc3ccc4c(c3)OCO4)nnc2c1` the outcome was “inactive”.
For `Cc1cc(NC(=O)c2cc(C3CC3)on2)no1`, the outcome was “inactive”.
For `CCCCn1c(Cl)nc2c1c(=O)n(C)c(=O)n2C`, the outcome was “inactive”.
In the case of `Cn1c(SCCOc2cccc(Cl)c2)nnc1-c1ccncc1`, the outcome is reported as “inactive”.
With `CCOc1ccc(-n2c(-c3ccco3)n[nH]c2=S)cc1` the outcome was “inactive”.
In the case of `OCCN(Cc1ccccc1)Cc1cccc(F)c1`, the outcome is reported as “inactive”.
In the case of `COC(=O)C1=C(C)OC(N)=C(C#N)C1c1cc(OC)c(OCC(N)=O)cc1Cl` (centres undefined), the outcome is reported as “inactive”.
With `COc1ccc(Cl)cc1NC(=O)C1CCCN(S(=O)(=O)c2cccc3nonc23)C1` (centres undefined) the outcome was “inactive”.
With `Cc1ccc(CNC(=O)C2CCN(S(=O)(=O)c3c(C)noc3C)CC2)cc1` the outcome was “inactive”.
`O=C1C(=O)N(CCN2CCOCC2)C(c2ccncc2)/C1=C(/O)c1ccc2c(c1)OCO2` (centres undefined) showed an IC50 of 116 µM.
For `Cn1cnnc1SCC(=O)n1c2ccccc2c2ccccc21`, the outcome was “inactive”.
With `Cc1ccc2[nH]c(=O)c(CN(CCN3CCOCC3)C(=O)Nc3ccccc3F)cc2c1` the outcome was “inactive”.
With `Cc1ccc(C(=O)COC(=O)CNC(=O)c2ccco2)cc1` the outcome was “inactive”.
With `O=C(NCc1n[nH]c(=S)n1-c1ccccc1)c1ccco1` the outcome was “inactive”.
For `CC(C)C1Oc2ccccc2N(CC(=O)NCCCN2C(C)CCCC2C)C1=O` (centres undefined), the outcome was “inactive”.
`COc1ccc(CN2C(=O)c3cccnc3C2Nc2cc(Cl)c(OC)cc2OC)cc1` (centres undefined) showed an IC50 of 15.2 µM.
With `CCS(=O)(=O)NCCc1csc(C)n1` the outcome was “inactive”.
In the case of `CCn1c(CC(C)C)n[nH]c1=S`, the outcome is reported as “inactive”.
Molecule `COc1ccc(CN2C(=O)c3cccnc3C2Nc2cc(Cl)ccc2OC)cc1` (centres undefined) has an IC50 of 5.71 µM.
For `COc1ccc(-n2c(=O)c3c4c(sc3n(CC(=O)NCc3ccco3)c2=O)CCC4)c(OC)c1`, the outcome was “inactive”.
For `Cc1nn(-c2ccccc2)c2c1C(O)n1c(nc3ccccc31)S2` (centres undefined), the outcome was “inactive”.
With `Cc1noc(C)c1C(=O)OCC(=O)/C=C1\N(C)c2ccccc2C1(C)C` the outcome was “inactive”.
In the case of `CCCCOC(=O)CSC1=C(C#N)C(c2ccccc2OC)C(C#N)C(=O)N1` (centres undefined), the outcome is reported as “inactive”.
For `O=c1c2ccccc2nnn1CSc1nnc(-c2cccs2)n1Cc1ccccc1`, the outcome was “inactive”.
In the case of `Cc1noc(C)c1CSc1nnc(C)c(=O)[nH]1`, the outcome is reported as “inactive”.
With `O=C(NCc1nnc(SCC(=O)N2CCN(c3ccccc3)CC2)o1)c1ccco1` the outcome was “inactive”.
For `Oc1ccc(-c2n[nH]c(=S)n2Cc2ccccc2)cc1`, the outcome was “inactive”.
With `COc1ccc(-c2nc(C#N)c(N3CCOCC3)o2)cc1OC` the outcome was “inactive”.
With `COc1cc(C2c3c(n[nH]c3C)C(=O)N2c2ccc(C)cc2)ccc1O` (centres undefined) the outcome was “inactive”.
In the case of `CCn1c(SCC(=O)c2ccccc2)nc2c(c1=O)SC(C)C2` (centres undefined), the outcome is reported as “inactive”.
With `CC1CCN(S(=O)(=O)c2ccc(NC(=O)CN3CCN(C)CC3)cc2)CC1` the outcome was “inactive”.
In the case of `CC1=NN(c2ccccc2)C(=O)C1`, the outcome is reported as “inactive”.
For `CCOC(=O)C1CCN(C(=O)CN(c2ccc(OC)c(OC)c2)S(=O)(=O)c2ccccc2)CC1`, the outcome was “inactive”.
With `CC(=O)NC(CCS(C)(=O)=O)C(=O)Nc1c(C)cccc1C` (centres undefined) the outcome was “inactive”.
In the case of `O=C(c1cc(-c2ccco2)on1)N1CCCc2ccccc21`, the outcome is reported as “inactive”.
In the case of `O=C(NCc1cn2ccccc2n1)c1ccccc1`, the outcome is reported as “inactive”.
In the case of `Nc1nnc(CCS(=O)(=O)c2cc(Cl)ccc2Cl)s1`, the outcome is reported as “inactive”.
For `Cc1cccc(C(=O)Nc2ccccc2C(=O)OCc2c(C)noc2C)c1`, the outcome was “inactive”.
In the case of `COc1cc2c(cc1OC)CN(Cc1ccc(OC)c(C)c1OC)CC2`, the outcome is reported as “inactive”.
With `COc1ccc(N(CC(=O)Nc2cc(OC)ccc2OC)S(C)(=O)=O)cc1` the outcome was “inactive”.
With `COc1ccc2[nH]cc(C3N4CC5(C)CN3CC(C)(C4)C5=O)c2c1` (centres undefined) the outcome was “inactive”.
For `Cc1cccc(NC(=O)c2cnc3sccn3c2=O)n1`, the outcome was “inactive”.
In the case of `CN1CCN(c2nc3c(c(=O)n(C)c(=O)n3C)n2Cc2cccc3ccccc23)CC1`, the outcome is reported as “inactive”.
For `COc1ccc(N(CC(=O)NCc2cccs2)S(=O)(=O)c2cccnc2)cc1`, the outcome was “inactive”.
Molecule `Cc1ccc(NC2c3ncccc3C(=O)N2c2ccccc2C)cc1C` (centres undefined) has an IC50 of 4.5 µM.
For `CC(C)OCCCNC(=O)CN1C(=O)CC(C)(C)S(=O)(=O)c2ccccc21`, the outcome was “inactive”.
With `COc1cc(NC(=O)c2cc(CC(C)C)on2)c(OC)cc1Cl` the outcome was “inactive”.
For `COc1ncnc(OC)c1NC(=O)c1ccc(F)cc1`, the outcome was “inactive”.
With `CCC(=O)Nc1ccc(NC(=O)c2ccccn2)cn1` the outcome was “inactive”.
For `CCn1nnc(NC(=O)c2cccc(-c3cc4ccccc4oc3=O)c2)n1`, the outcome was “inactive”.
For `COc1ccc(NC(=O)c2cc(-c3ccccc3OC)on2)cc1`, the outcome was “inactive”.
With `Cc1c(S(=O)(=O)Nc2cccc(Cl)c2)c(=O)n(C)c(=O)n1C` the outcome was “inactive”.
In the case of `CCOC(=O)c1[nH]c2ccccc2c1NC(=O)c1ccc(Br)o1`, the outcome is reported as “inactive”.
With `CCCc1[nH]nc2c1C(c1ccc(OC)c(Cn3nnc4ccccc43)c1)C(C#N)=C(N)O2` (centres undefined) the outcome was “inactive”.
For `COc1ccccc1NS(=O)(=O)c1cccc2cccnc12`, the outcome was “inactive”.
For `Cc1ccsc1CN1CCN(c2ccccn2)CC1`, the outcome was “inactive”.
For `COc1c(Br)cc2c(C)c(C(=O)O)oc2c1Br`, the outcome was “inactive”.
In the case of `CCOC(=O)c1c(C)n(C)c2ccc(O)c(CN3CCC(C)CC3)c12`, the outcome is reported as “inactive”.
With `COc1ccccc1N1CCN(Cc2ccc(OC)c3ccccc23)CC1` the outcome was “inactive”.
With `CN(C)c1ccc(CNCCC2(O)CCOC(C)(C)C2)cc1` (centres undefined) the outcome was “inactive”.
In the case of `CCN(CC)S(=O)(=O)c1ccc(C(=O)OCC(=O)N2CCN(C(=O)c3ccco3)CC2)cc1`, the outcome is reported as “inactive”.
For `COCCCn1c(SCC(=O)NCc2ccco2)nc2sc3c(c2c1=O)CCC3`, the outcome was “inactive”.
For `Cc1ccsc1C1C(C(=O)O)c2ccccc2C(=O)N1C` (centres undefined), the outcome was “inactive”.
With `N#C/C(=C(/O)COC(=O)CCc1ccc(S(=O)(=O)N2CCOCC2)cc1)c1nc2ccccc2[nH]1` the outcome was “inactive”.
With `Cn1cccc1Cc1nnc(SCC(=O)NCc2ccc(F)cc2)n1-c1ccc(F)cc1` the outcome was “inactive”.
With `CC(C)NC(=O)CSc1nnc(-c2ccc(S(=O)(=O)N3CCCC3)cc2)n1CC1CCCO1` (centres undefined) the outcome was “inactive”.
In the case of `N/C(CCN1CCOCC1)=N/O`, the outcome is reported as “inactive”.
In the case of `O=C(c1ccc(F)cc1)N1CCC(N2CCCCCC2)CC1`, the outcome is reported as “inactive”.
In the case of `O=c1c(-c2ccccc2)c(O)c2cccc3c2n1CCC3`, the outcome is reported as “inactive”.
For `N#Cc1ccc(-c2cccnc2)nc1SCC(=O)Nc1sc2c(c1C#N)CCC2`, the outcome was “inactive”.
